Data taken from publication PMC8954523 (Pharmaceutics, 2022).

Assay: Hypothetical transfer thermodynamic functions from solvation functions
Format: physicochemical
Details: 298.15 K; for TΔStr / ΔGtr / ΔHtr / ΔStr / ζHtr / ζTStr: hypothetical
Procedure: The impact of the specific interactions on the solvation process was estimated by analyzing the thermodynamic functions of the hypothetical transfer from n-hexane—an inert solvent interacting with the drugs only non-specifically—to water, 1-octanol, and ethanol. Besides this, the hypothetic transfer from water to 1-octanol is significant as a model of the drug penetrating through the lipophilic biological membranes. The transferring thermodynamic parameters listed in Table 4 were calculated as a difference (taking into account the sign of the thermodynamic function) between the respective functions in a solvent (1-octanol/water/ethanol) and in n-hexane and between 1-octanol and water.
The relationship between the specific and non-specific solvation thermodynamic contributions was disclosed using the εH and εS parameters calculated as follows:(20) εH=(ΔHspec/ΔHnon−spec)⋅100%where ΔHspec=ΔHtr(n−hexane→solvent)and ΔHnon−spec=ΔHsolv(n−hexane) (21) εS=(ΔSspec/ΔSnon−spec)⋅100%where ΔSspec=ΔStr(n−hexane→solvent)and ΔSnon−spec=ΔSsolv(n−hexane)

In the case of `CC(O)(CS(=O)(=O)c1ccc(F)cc1)C(=O)Nc1ccc(C#N)c(C(F)(F)F)c1` (centres unmarked) [BCL, bicalutamide], the εH (n-hexane → 1-octanol) is reported as 36.6%, the εS (n-hexane → 1-octanol) is reported as 30.2% and the TΔStr (n-hexane → 1-octanol) is reported as −13.9 kJ⋅mol^−1. It also gave a ΔGtr (n-hexane → 1-octanol) of −13.7 kJ⋅mol^−1, a ΔHtr (n-hexane → 1-octanol) of −27.6 kJ⋅mol^−1 and a ΔStr (n-hexane → 1-octanol) of −46.6 J⋅mol^−1⋅K^−1. It also gave a ζHtr (n-hexane → 1-octanol) of 66.5%, a ζTStr (n-hexane → 1-octanol) of 33.5% and a εS (n-hexane → ethanol) of 5.0%. The TΔStr (n-hexane → ethanol) was −2.3 kJ⋅mol^−1, the ΔGtr (n-hexane → ethanol) was −18 kJ⋅mol^−1 and the ΔHtr (n-hexane → ethanol) was −20.3 kJ⋅mol^−1. For the same compound, the ΔStr (n-hexane → ethanol) was −7.7 J⋅mol^−1⋅K^−1, the ζHtr (n-hexane → ethanol) was 89.8% and the ζTStr (n-hexane → ethanol) was 10.2%. For the same compound, the εH (n-hexane → water) was 16.4%, the εS (n-hexane → water) was 37.4% and the TΔStr (n-hexane → water) was −17.2 kJ⋅mol^−1. The ΔGtr (n-hexane → water) was 4.8 kJ⋅mol^−1, the ΔHtr (n-hexane → water) was −12.4 kJ⋅mol^−1 and the ΔStr (n-hexane → water) was −57.7 J⋅mol^−1⋅K^−1. The ζHtr (n-hexane → water) was 41.9%, the ζTStr (n-hexane → water) was 58.1% and the TΔStr (water → 1-octanol) was 3.3 kJ⋅mol^−1. The ΔGtr (water → 1-octanol) was −18.5 kJ⋅mol^−1, the ΔHtr (water → 1-octanol) was −15.2 kJ⋅mol^−1 and the ΔStr (water → 1-octanol) was 11.1 J⋅mol^−1⋅K^−1. It also gave a ζHtr (water → 1-octanol) of 82.2% and a ζTStr (water → 1-octanol) of 17.8%.
